Data published in PubChem BioAssay AID1963984 (Molecular Pharmacology Branch, DTP, NCI, 2024).
pIC50: −log10 of the molar value.

System: 233499-124-R-J3-PDC spheroids with HUVEC/MSC, viability
Experiment: Anticancer human tumor 233499-124-R-J3-PDC patient-derived colon adenocarcinoma cell line growth inhibition [PI3K]
Conditions: for pIC50: curve of first compound; for viability, T/C: stronger effect = lower value
Method in brief: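 Viability of mixed-cell spheroids was determined after exposure to pairwise combinations, one partner being inavolisib, alpelisib, duvelisib or copanlisib. Highest tested concentration matched clinical Cmax where known and 10 microM where not, descending in half-log steps.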

[1] = second compound 0.0316 µM, first compound 0.0316 µM
[2] = second compound 0.0316 µM, first compound 0.1 µM
[3] = second compound 0.0316 µM, first compound 0.316 µM
[4] = second compound 0.0316 µM, first compound 1 µM
[5] = second compound 0.0316 µM, first compound 3.16 µM
[6] = second compound 0.0316 µM, first compound 10 µM
[7] = second compound 0.1 µM, first compound 0.0316 µM
[8] = second compound 0.1 µM, first compound 0.1 µM
[9] = second compound 0.1 µM, first compound 0.316 µM
[10] = second compound 0.1 µM, first compound 1 µM
[11] = second compound 0.1 µM, first compound 3.16 µM
[12] = second compound 0.1 µM, first compound 10 µM
[13] = second compound 0.316 µM, first compound 0.0316 µM
[14] = second compound 0.316 µM, first compound 0.1 µM
[15] = second compound 0.316 µM, first compound 0.316 µM
[16] = second compound 0.316 µM, first compound 1 µM
[17] = second compound 0.316 µM, first compound 3.16 µM
[18] = second compound 0.316 µM, first compound 10 µM
[19] = second compound 1 µM, first compound 0.0316 µM
[20] = second compound 1 µM, first compound 0.1 µM
[21] = second compound 1 µM, first compound 0.316 µM
[22] = second compound 1 µM, first compound 1 µM
[23] = second compound 1 µM, first compound 3.16 µM
[24] = second compound 1 µM, first compound 10 µM
[25] = second compound 3.16 µM, first compound 0.0316 µM
[26] = second compound 3.16 µM, first compound 0.1 µM
[27] = second compound 3.16 µM, first compound 0.316 µM
[28] = second compound 3.16 µM, first compound 1 µM
[29] = second compound 3.16 µM, first compound 3.16 µM
[30] = second compound 3.16 µM, first compound 10 µM
[31] = second compound 10 µM, first compound 0.0316 µM
[32] = second compound 10 µM, first compound 0.1 µM
[33] = second compound 10 µM, first compound 0.316 µM
[34] = second compound 10 µM, first compound 1 µM
[35] = second compound 10 µM, first compound 3.16 µM
[36] = second compound 10 µM, first compound 10 µM
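Note: spheroids exposed to agents for seven days before readout.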
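Throughout, for viability, T/C: percent viability relative to DMSO vehicle control taken as 100%.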

C#Cc1c(F)ccc2cc(O)cc(-c3ncc4c(N5CC6CCC(C5)N6)nc(OCC56CCCN5CC(F)C6)nc4c3F)c12 (stereo not given) + Cc1nc(NC(=O)N2CCCC2C(N)=O)sc1-c1ccnc(C(C)(C)C(F)(F)F)c1
pIC50 (second compound 0.0316 µM): < 5.00 | pIC50 (second compound 0.1 µM): < 5.00 | pIC50 (second compound 0.316 µM): < 5.00 | pIC50 (second compound 1 µM): 5.24 | pIC50 (second compound 3.16 µM): 6.09 | pIC50 (second compound 10 µM): > 7.50 | viability, T/C [1]: 91.5% | viability, T/C [2]: 98.2% | viability, T/C [3]: 79.3% | viability, T/C [4]: 89.2% | viability, T/C [5]: 81.2% | viability, T/C [6]: 84.5% | viability, T/C [7]: 108% | viability, T/C [8]: 107% | viability, T/C [9]: 91.4% | viability, T/C [10]: 77.7% | viability, T/C [11]: 81% | viability, T/C [12]: 104% | viability, T/C [13]: 88.7% | viability, T/C [14]: 83% | viability, T/C [15]: 83% | viability, T/C [16]: 77.1% | viability, T/C [17]: 50.9% | viability, T/C [18]: 82.4% | viability, T/C [19]: 77.1% | viability, T/C [20]: 54.9% | viability, T/C [21]: 83.4% | viability, T/C [22]: 64.4% | viability, T/C [23]: 64.3% | viability, T/C [24]: 37.7% | viability, T/C [25]: 65.3% | viability, T/C [26]: 72% | viability, T/C [27]: 67% | viability, T/C [28]: 43.6% | viability, T/C [29]: 33.6% | viability, T/C [30]: 61.2% | viability, T/C [31]: 30.5% | viability, T/C [32]: 39% | viability, T/C [33]: 16.3% | viability, T/C [34]: 26.1% | viability, T/C [35]: 12.4% | viability, T/C [36]: 4.04%

C=CC(=O)N1CCN(c2nc(=O)n(-c3c(C)ccnc3C(C)C)c3nc(-c4c(O)cccc4F)c(F)cc23)C(C)C1 (stereo not given) + Cc1nc(NC(=O)N2CCCC2C(N)=O)sc1-c1ccnc(C(C)(C)C(F)(F)F)c1
pIC50 (second compound 0.0316 µM): < 5.00 | pIC50 (second compound 0.1 µM): < 5.00 | pIC50 (second compound 0.316 µM): < 5.00 | pIC50 (second compound 1 µM): < 5.00 | pIC50 (second compound 3.16 µM): > 7.50 | pIC50 (second compound 10 µM): > 7.50 | viability, T/C [1]: 89.3% | viability, T/C [2]: 94.8% | viability, T/C [3]: 99.3% | viability, T/C [4]: 106% | viability, T/C [5]: 100% | viability, T/C [6]: 85% | viability, T/C [7]: 84.8% | viability, T/C [8]: 96.3% | viability, T/C [9]: 93% | viability, T/C [10]: 81.4% | viability, T/C [11]: 79.5% | viability, T/C [12]: 80.2% | viability, T/C [13]: 95.2% | viability, T/C [14]: 96.7% | viability, T/C [15]: 70.1% | viability, T/C [16]: 82.2% | viability, T/C [17]: 67.5% | viability, T/C [18]: 92.6% | viability, T/C [19]: 71.7% | viability, T/C [20]: 92.2% | viability, T/C [21]: 79.4% | viability, T/C [22]: 77.3% | viability, T/C [23]: 80.9% | viability, T/C [24]: 79.8% | viability, T/C [25]: 39.4% | viability, T/C [26]: 51.1% | viability, T/C [27]: 71.8% | viability, T/C [28]: 34.1% | viability, T/C [29]: 60.9% | viability, T/C [30]: 67.9% | viability, T/C [31]: 24% | viability, T/C [32]: 41.6% | viability, T/C [33]: 24.9% | viability, T/C [34]: 41.8% | viability, T/C [35]: 37.6% | viability, T/C [36]: 27.2%

CC(Cn1ccc(-c2ccc(C#N)c(Cl)c2)n1)NC(=O)c1cc(C(C)O)[nH]n1 (stereo not given) + Cc1nc(NC(=O)N2CCCC2C(N)=O)sc1-c1ccnc(C(C)(C)C(F)(F)F)c1
pIC50 (second compound 0.0316 µM): < 5.00 | pIC50 (second compound 0.1 µM): < 5.00 | pIC50 (second compound 0.316 µM): < 5.00 | pIC50 (second compound 1 µM): < 5.00 | pIC50 (second compound 3.16 µM): 5.23 | pIC50 (second compound 10 µM): > 7.50 | viability, T/C [1]: 88.9% | viability, T/C [2]: 81.6% | viability, T/C [3]: 101% | viability, T/C [4]: 97.3% | viability, T/C [5]: 95.6% | viability, T/C [6]: 85.6% | viability, T/C [7]: 102% | viability, T/C [8]: 106% | viability, T/C [9]: 98.7% | viability, T/C [10]: 108% | viability, T/C [11]: 72.6% | viability, T/C [12]: 92.5% | viability, T/C [13]: 55.1% | viability, T/C [14]: 74.3% | viability, T/C [15]: 105% | viability, T/C [16]: 100% | viability, T/C [17]: 86.7% | viability, T/C [18]: 77.6% | viability, T/C [19]: 77.2% | viability, T/C [20]: 76.5% | viability, T/C [21]: 83.7% | viability, T/C [22]: 50.5% | viability, T/C [23]: 63.6% | viability, T/C [24]: 81.9% | viability, T/C [25]: 61.8% | viability, T/C [26]: 53.8% | viability, T/C [27]: 59.7% | viability, T/C [28]: 64.6% | viability, T/C [29]: 39.6% | viability, T/C [30]: 52.5% | viability, T/C [31]: 30.7% | viability, T/C [32]: 33.9% | viability, T/C [33]: 35% | viability, T/C [34]: 42.2% | viability, T/C [35]: 21.9% | viability, T/C [36]: 38.9%

CC1(C)CCC(Nc2ncc(C(F)(F)F)c(-c3c[nH]c4c(P(C)(C)=O)c(C#N)ccc34)n2)CN1 (stereo not given) + Cc1nc(NC(=O)N2CCCC2C(N)=O)sc1-c1ccnc(C(C)(C)C(F)(F)F)c1
pIC50 (second compound 0.0316 µM): 7.18 | pIC50 (second compound 0.1 µM): 7.49 | pIC50 (second compound 0.316 µM): 6.81 | pIC50 (second compound 1 µM): 7.21 | pIC50 (second compound 3.16 µM): > 7.50 | pIC50 (second compound 10 µM): > 7.50 | viability, T/C [1]: 65.2% | viability, T/C [2]: 32% | viability, T/C [3]: 32.9% | viability, T/C [4]: 34.6% | viability, T/C [5]: 25.1% | viability, T/C [6]: 6.03% | viability, T/C [7]: 51.6% | viability, T/C [8]: 41.4% | viability, T/C [9]: 29.3% | viability, T/C [10]: 25.1% | viability, T/C [11]: 19.8% | viability, T/C [12]: 2.83% | viability, T/C [13]: 54.8% | viability, T/C [14]: 76.9% | viability, T/C [15]: 23.8% | viability, T/C [16]: 31.1% | viability, T/C [17]: 16.6% | viability, T/C [18]: 3.57% | viability, T/C [19]: 69% | viability, T/C [20]: 34.2% | viability, T/C [21]: 24% | viability, T/C [22]: 21.9% | viability, T/C [23]: 29.1% | viability, T/C [24]: 2.22% | viability, T/C [25]: 52.1% | viability, T/C [26]: 34.9% | viability, T/C [27]: 31% | viability, T/C [28]: 18.4% | viability, T/C [29]: 15.9% | viability, T/C [30]: 0.85% | viability, T/C [31]: 16.1% | viability, T/C [32]: 16.2% | viability, T/C [33]: 25.9% | viability, T/C [34]: 27.1% | viability, T/C [35]: 10.1% | viability, T/C [36]: 0.57%

Cn1nccc1Nc1nccc(-c2ccn(C(CO)c3ccc(Cl)c(F)c3)c(=O)c2)n1 (stereo not given) + Cc1nc(NC(=O)N2CCCC2C(N)=O)sc1-c1ccnc(C(C)(C)C(F)(F)F)c1
pIC50 (second compound 0.0316 µM): < 5.00 | pIC50 (second compound 0.1 µM): 5.06 | pIC50 (second compound 0.316 µM): < 5.00 | pIC50 (second compound 1 µM): 5.50 | pIC50 (second compound 3.16 µM): 6.07 | pIC50 (second compound 10 µM): > 7.50 | viability, T/C [1]: 82.9% | viability, T/C [2]: 98.6% | viability, T/C [3]: 73% | viability, T/C [4]: 91.6% | viability, T/C [5]: 68.9% | viability, T/C [6]: 58.2% | viability, T/C [7]: 92.6% | viability, T/C [8]: 100% | viability, T/C [9]: 68.7% | viability, T/C [10]: 83.3% | viability, T/C [11]: 82.7% | viability, T/C [12]: 45.2% | viability, T/C [13]: 94.6% | viability, T/C [14]: 63.8% | viability, T/C [15]: 67.9% | viability, T/C [16]: 65.7% | viability, T/C [17]: 57.7% | viability, T/C [18]: 47.8% | viability, T/C [19]: 89.2% | viability, T/C [20]: 81.5% | viability, T/C [21]: 31.1% | viability, T/C [22]: 57.6% | viability, T/C [23]: 52.3% | viability, T/C [24]: 64.8% | viability, T/C [25]: 68.2% | viability, T/C [26]: 58.7% | viability, T/C [27]: 54.8% | viability, T/C [28]: 53.8% | viability, T/C [29]: 38.4% | viability, T/C [30]: 34.8% | viability, T/C [31]: 33.8% | viability, T/C [32]: 35.6% | viability, T/C [33]: 46% | viability, T/C [34]: 22.7% | viability, T/C [35]: 14.5% | viability, T/C [36]: 17.5%
